One assay deals with GST-Bcl-2 (Homo sapiens, UniProt P10415). As to the kind of experiment: TR-FRET binding assay, GST-Bcl-2 with F-Bak peptide probe. The following applies: TR-FRET Binding Affinity. The method, then: (§1) Tb-anti-GST antibody was purchased from Invitrogen (Catalog No. PV4216).
(§2) Representative compounds were serially diluted in dimethyl sulfoxide (DMSO) starting at 50 μM (2× starting concentration; 10% DMSO) and 10 μL were transferred into a 384-well plate.
(§3) The samples were then mixed on a shaker for 1 minute and incubated for an additional 3 hours at room temperature. For each assay, the probe/antibody and protein/probe/antibody were included on each assay plate as negative and positive controls, respectively. Fluorescence was measured on the ENVISION plate reader (Perkin Elmer) using a 340/35 nm excitation filter and 520/525 (F-Bak peptide) and 495/510 nm (Tb-labeled […] antibody) emission filters.
(§4) The inhibition constant (Ki) is the dissociation constant of an enzyme-inhibitor complex or a protein/small molecule complex, wherein the small molecule is inhibiting binding of one protein to another protein or peptide. […] Inhibition constants were determined using Wang's equation (Wang Z-X., An Exact Mathematical Expression For Describing Competitive Binding Of Two Different Ligands To A Protein Molecule. FEBS Lett. 1995, 360:111-4).

The target in another assay is GST-Bcl-XL (Homo sapiens, UniProt Q07817). Nature of the assay: TR-FRET binding assay, GST-Bcl-XL with F-Bak peptide probe. Particulars: TR-FRET Binding Affinity, GST-Bcl-XL, F-Bak peptide probe. As to the method: as §1, §2, §3, §4
GST-Bcl-XL, sequence (Q07817 whole entry): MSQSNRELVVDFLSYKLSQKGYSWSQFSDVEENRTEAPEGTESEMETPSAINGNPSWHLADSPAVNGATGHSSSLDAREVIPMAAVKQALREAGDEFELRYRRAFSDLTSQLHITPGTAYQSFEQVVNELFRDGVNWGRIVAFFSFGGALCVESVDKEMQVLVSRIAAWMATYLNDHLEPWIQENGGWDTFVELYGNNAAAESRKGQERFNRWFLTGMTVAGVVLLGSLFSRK

Bounds are passed on as bounds.

GST-Bcl-2, sequence (P10415 whole entry): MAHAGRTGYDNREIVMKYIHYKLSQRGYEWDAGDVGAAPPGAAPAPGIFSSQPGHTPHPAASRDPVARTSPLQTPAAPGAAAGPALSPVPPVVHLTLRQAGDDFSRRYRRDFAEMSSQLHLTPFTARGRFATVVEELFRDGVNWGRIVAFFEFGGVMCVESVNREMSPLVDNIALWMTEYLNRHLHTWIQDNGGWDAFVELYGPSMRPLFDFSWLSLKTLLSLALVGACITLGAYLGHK

`O=C(NS(=O)(=O)c1ccc(NCC2CCOCC2)c([N+](=O)[O-])c1)c1ccc(N2CCN(Cc3ccccc3-c3ccc(Cl)cc3)CC2)cc1Oc1ccccc1` [Example 1, 4-{4-[(4′-chloro-1,1′-biphenyl-2-yl)methyl]piperazin-1-yl}-N-({3-nitro-4-[(tetrahydro-2H-pyran-4-ylmethyl)amino]phenyl}sulfonyl)-2-phenoxybenzamide]: the Ki turned out to be 6.77 nM at GST-Bcl-2 (GST-Bcl-2, F-Bak peptide probe) and 578 nM at GST-Bcl-XL.

Turning to `CC1(C)CCC(c2ccc(Cl)cc2)=C(CN2CCN(c3ccc(C(=O)NS(=O)(=O)c4ccc(NCCCN5CCOCC5)c([N+](=O)[O-])c4)c(Oc4ccccc4)c3)CC2)C1` [Example 19, 4-(4-{[2-(4-chlorophenyl)-5,5-dimethylcyclohex-1-en-1-yl]methyl}piperazin-1-yl)-N-({4-[(3-morpholin-4-ylpropyl)amino]-3-nitrophenyl}sulfonyl)-2-phenoxybenzamide], the Ki came out at 0.847 nM on GST-Bcl-2 (GST-Bcl-2, F-Bak peptide probe) and 20 nM on GST-Bcl-XL.

As for `CC1(C)CCC(CN2CCN(c3ccc(C(=O)NS(=O)(=O)c4ccc(NCCCN5CCOCC5)c([N+](=O)[O-])c4)c(Oc4ccc5[nH]ncc5c4)c3)CC2)=C(c2ccc(Cl)cc2)C1` [Example 20, 4-(4-{[2-(4-chlorophenyl)-4,4-dimethylcyclohex-1-en-1-yl]methyl}piperazin-1-yl)-2-(1H-indazol-5-yloxy)-N-({4-[(3-morpholin-4-ylpropyl)amino]-3-nitrophenyl}sulfonyl)benzamide], the inhibition constant (Ki) on GST-Bcl-2 (GST-Bcl-2, F-Bak peptide probe) amounted to 2.36 nM; at GST-Bcl-XL it was 77.6 nM.

`O=C(NS(=O)(=O)c1ccc(N2C(=O)C3CCC3C2=O)cc1)c1ccc(N2CCN(Cc3ccccc3-c3ccc(Cl)cc3)CC2)cc1Oc1ccccc1` (stereo not drawn) [Example 28, 4-{4-[(4′-chloro-1,1′-biphenyl-2-yl)methyl]piperazin-1-yl}-N-{[4-(2,4-dioxo-3-azabicyclo[3.2.0]hept-3-yl)phenyl]sulfonyl}-2-phenoxybenzamide]: the inhibition constant Ki at GST-Bcl-2 (GST-Bcl-2, F-Bak peptide probe) is 33.7 nM; on GST-Bcl-XL, above 660 nM.

Take `CC1CC(=O)NN=C1c1ccc(S(=O)(=O)NC(=O)c2ccc(N3CCN(Cc4ccccc4-c4ccc(Cl)cc4)CC3)cc2Oc2ccccc2)cc1` (stereo not drawn) [Example 29, 4-{4-[(4′-chloro-1,1′-biphenyl-2-yl)methyl]piperazin-1-yl}-N-{[4-(4-methyl-6-oxo-1,4,5,6-tetrahydropyridazin-3-yl)phenyl]sulfonyl}-2-phenoxybenzamide]: the Ki is 11.9 nM on GST-Bcl-2 (GST-Bcl-2, F-Bak peptide probe) and above 660 nM on GST-Bcl-XL.

Take `CC1(C)CN(c2ccc(S(=O)(=O)NC(=O)c3ccc(N4CCN(Cc5ccccc5-c5ccc(Cl)cc5)CC4)cc3Oc3ccccc3)cc2)C1=O` [Example 30, 4-{4-[(4′-chloro-1,1′-biphenyl-2-yl)methyl]piperazin-1-yl}-N-{[4-(3,3-dimethyl-2-oxoazetidin-1-yl)phenyl]sulfonyl}-2-phenoxybenzamide]: the inhibitory constant (Ki) at GST-Bcl-2 (GST-Bcl-2, F-Bak peptide probe) was 103 nM; on GST-Bcl-XL, above 660 nM.

As to `O=C(NS(=O)(=O)c1ccc(-n2ncc([N+](=O)[O-])n2)cc1)c1ccc(N2CCN(Cc3ccccc3-c3ccc(Cl)cc3)CC2)cc1Oc1ccccc1` [Example 31, 4-{4-[(4′-chloro-1,1′-biphenyl-2-yl)methyl]piperazin-1-yl}-N-{[4-(4-nitro-2H-1,2,3-triazol-2-yl)phenyl]sulfonyl}-2-phenoxybenzamide], the inhibition constant (Ki) on GST-Bcl-2 (GST-Bcl-2, F-Bak peptide probe) was 36.6 nM; on GST-Bcl-XL, above 660 nM.

For the compound `O=C(NS(=O)(=O)c1ccccc1OCCN1CCCCC1)c1ccc(N2CCN(Cc3ccccc3-c3ccc(Cl)cc3)CC2)cc1Oc1ccccc1` [Example 32, 4-{4-[(4′-chloro-1,1′-biphenyl-2-yl)methyl]piperazin-1-yl}-2-phenoxy-N-{[2-(2-piperidin-1-ylethoxy)phenyl]sulfonyl}benzamide], the Ki on GST-Bcl-2 (GST-Bcl-2, F-Bak peptide probe) is 61.1 nM; at GST-Bcl-XL, above 660 nM.

Regarding `CCN1CCCC1CNC(=O)c1cc(S(=O)(=O)NC(=O)c2ccc(N3CCN(Cc4ccccc4-c4ccc(Cl)cc4)CC3)cc2Oc2ccccc2)ccc1OC` (stereo not drawn) [Example 33, 4-{4-[(4′-chloro-1,1′-biphenyl-2-yl)methyl]piperazin-1-yl}-N-{[3-({[(1-ethylpyrrolidin-2-yl)methyl]amino}carbonyl)-4-methoxyphenyl]sulfonyl}-2-phenoxybenzamide], the inhibition constant Ki on GST-Bcl-2 (GST-Bcl-2, F-Bak peptide probe) was found to be 6.68 nM; on GST-Bcl-XL, 333 nM.

In turn, `O=C(NS(=O)(=O)c1ccc(NCCCN2CCOCC2)c([N+](=O)[O-])c1)c1ccc(N2CCN(Cc3ccccc3-c3ccc(Cl)cc3)CC2)cc1Oc1ccc2[nH]ccc2c1` [Example 59, 4-{4-[(4′-chloro-1,1′-biphenyl-2-yl)methyl]piperazin-1-yl}-2-(1H-indol-5-yloxy)-N-({4-[(3-morpholin-4-ylpropyl)amino]-3-nitrophenyl}sulfonyl)benzamide] gave an inhibitory constant (Ki) on GST-Bcl-XL of 1260 nM.

`CN1[C@@H]2CC[C@H]1CC(Nc1ccc(S(=O)(=O)NC(=O)c3ccc(N4CCN(CC5=C(c6ccc(Cl)cc6)CC(C)(C)CC5)CC4)cc3Oc3ccc4[nH]ccc4c3)cc1[N+](=O)[O-])C2` (stereo partly drawn) [Example 467, 4-(4-{[2-(4-chlorophenyl)-4,4-dimethylcyclohex-1-en-1-yl]methyl}piperazin-1-yl)-2-(1H-indol-5-yloxy)-N-[(4-{[(1R,5S)-8-methyl-8-azabicyclo[3.2.1]oct-3-yl]amino}-3-nitrophenyl)sulfonyl]benzamide] yielded an inhibitory constant (Ki) at GST-Bcl-2 of 0.08 nM.

At GST-Bcl-2, `COCC1(C)CCC(c2ccc(Cl)cc2)=C(CN2CCN(c3ccc(C(=O)NS(=O)(=O)c4cnc(OCC5CCC(C)(O)CC5)c(Cl)c4)c(Oc4cccc5[nH]ncc45)c3)CC2)C1` (stereo not drawn) [Example 539, N-({5-chloro-6-[(trans-4-hydroxy-4-methylcyclohexyl)methoxy]pyridin-3-yl}sulfonyl)-4-(4-{[2-(4-chlorophenyl)-5-(methoxymethyl)-5-methylcyclohex-1-en-1-yl]methyl}piperazin-1-yl)-2-(1H-indazol-4-yloxy)benzamide] returned a Ki below 0.01 nM.

On to `CC1(C)CCC(CN2CCN(c3ccc(C(=O)NS(=O)(=O)c4ccc(NC[C@H]5CN(C6COC6)CCO5)c([N+](=O)[O-])c4)c(Oc4cccc5[nH]ncc45)c3)CC2)=C(c2ccc(Cl)cc2)C1` [Example 540, 4-(4-{[2-(4-chlorophenyl)-4,4-dimethylcyclohex-1-en-1-yl]methyl}piperazin-1-yl)-2-(1H-indazol-4-yloxy)-N-{[3-nitro-4-({[(2S)-4-(oxetan-3-yl)morpholin-2-yl]methyl}amino)phenyl]sulfonyl}benzamide], for which the Ki at GST-Bcl-2 is below 0.01 nM.

In the case of `CC1(C)CCC(CN2CCN(c3ccc(C(=O)NS(=O)(=O)c4ccc(NC[C@H]5CN(C6COC6)CCO5)c([N+](=O)[O-])c4)c(Oc4cccc5[nH]cnc45)c3)CC2)=C(c2ccc(Cl)cc2)C1` [Example 541, 2-(1H-benzimidazol-4-yloxy)-4-(4-{[2-(4-chlorophenyl)-4,4-dimethylcyclohex-1-en-1-yl]methyl}piperazin-1-yl)-N-{[3-nitro-4-({[(2S)-4-(oxetan-3-yl)morpholin-2-yl]methyl}amino)phenyl]sulfonyl}benzamide], at GST-Bcl-2, the affinity, expressed as Ki, was 0.167 nM.

In turn, `CC1(C)CCC(CN2CCN(c3ccc(C(=O)NS(=O)(=O)c4cnc(OCC5CCC(C)(O)CC5)c(C#N)c4)c(Oc4cccc5[nH]ncc45)c3)CC2)=C(c2ccc(Cl)cc2)C1` (stereo not drawn) [Example 544, 4-(4-{[2-(4-chlorophenyl)-4,4-dimethylcyclohex-1-en-1-yl]methyl}piperazin-1-yl)-N-({5-cyano-6-[(trans-4-hydroxy-4-methylcyclohexyl)methoxy]pyridin-3-yl}sulfonyl)-2-(1H-indazol-4-yloxy)benzamide] gave a Ki on GST-Bcl-2 below 0.01 nM.

The compound `CC1(C)CCC(CN2CCN(c3ccc(C(=O)NS(=O)(=O)c4cnc(OCC5(F)CCC(C#N)CC5)c(Cl)c4)c(Oc4cccc5[nH]ncc45)c3)CC2)=C(c2ccc(Cl)cc2)C1` (stereo not drawn) [Example 549, N-({5-chloro-6-[(cis-4-cyano-1-fluorocyclohexyl)methoxy]pyridin-3-yl}sulfonyl)-4-(4-{[2-(4-chlorophenyl)-4,4-dimethylcyclohex-1-en-1-yl]methyl}piperazin-1-yl)-2-(1H-indazol-4-yloxy)benzamide] showed a Ki on GST-Bcl-2 below 0.01 nM.

As to `COC1(C)CCC(c2ccc(Cl)cc2)=C(CN2CCN(c3ccc(C(=O)NS(=O)(=O)c4cnc(OCC5CCC(C)(O)CC5)c(Cl)c4)c(Oc4cccc5[nH]ncc45)c3)CC2)C1` (stereo not drawn) [Example 553, N-({5-chloro-6-[(trans-4-hydroxy-4-methylcyclohexyl)methoxy]pyridin-3-yl}sulfonyl)-4-(4-{[2-(4-chlorophenyl)-5-methoxy-5-methylcyclohex-1-en-1-yl]methyl}piperazin-1-yl)-2-(1H-indazol-4-yloxy)benzamide], the Ki on GST-Bcl-2 was below 0.01 nM.

`CC1(C)CCC(CN2CCN(c3ccc(C(=O)NS(=O)(=O)c4cnc(NCC5CCC(C)(O)CC5)c([N+](=O)[O-])c4)c(Oc4cccc5[nH]ncc45)c3)CC2)=C(c2ccc(Cl)cc2)C1` (stereo not drawn) [Example 555, 4-(4-{[2-(4-chlorophenyl)-4,4-dimethylcyclohex-1-en-1-yl]methyl}piperazin-1-yl)-N-[(6-{[(cis-4-hydroxy-4-methylcyclohexyl)methyl]amino}-5-nitropyridin-3-yl)sulfonyl]-2-(H-indazol-4-yloxy)benzamide] had an inhibition constant Ki on GST-Bcl-2 below 0.01 nM.

The values are drawn from patent US9073855B2, “BCL-2 selective apoptosis-inducing agents for the treatment of cancer and immune diseases” (AbbVie Inc., priority 2008, dated 2015).
